Measured values: patent US10807959B2, “WDR5-MLL1 inhibitors and modulators” (Vanderbilt University, priority 2018, dated 2020)

Legend:
WDR5 [1] = target: T1, WDR5 (Homo sapiens (Human), UniProt P61964); assay: TR-FRET binding assay, displacement of 10mer-Thr-FAM probe from His-tagged WDR5
Procedure: The LanthaScreenTM Elite Tb-anti-HIS Antibody from ThermoFisher Scientific was used for this purpose. […] The ratio of the 520 and 495 signals are then utilized to generate a dose-response curve to calculate an IC50 value. […] WDR[…] tag protein is used at 2 nM.

MV4:11 cells = assay: Cellular viability / anti-proliferative activity, CellTiter-Glo, 7 day protocol; type: cell-based, human; settings: 168 h
Procedure: Anti proliferative activity using MLL-harboring cell lines. MV4:11 cells are grown in RPMI-1640 media supplemented with 10% FBS and 1% penicillin/streptomycin. Viability assays are performed by dispensing […] into each well of an opaque 384-well plate and adding compounds at the indicated concentrations in a final volume of 32 μL and a final concentration of DMSO of 0.1% for all samples. After a set incubation period, 7 day protocol, the viability of cells in each well is assessed using the CellTiter-Glo assay (Promega), read on a GloMax 96 Microplane Luminometer (Promega). Serial dilutions of each cell type are included in all assays to generate standard curves and determine assay measurements are taken within the dynamic range of the instrument. GI50 values are calculated based on three biological replicates, each with three technical replicates. Data are expressed as mean plus/minus S.E.M.

WDR5 [2] = target: T1, WDR5; assay: Fluorescence polarization anisotropy (FPA) competition assay, displacement of FITC-MLL or 10mer-Thr-FAM peptide; type: binding; settings: Table B2, WDR5 WIN-site binding affinity; values not less than 1 nM (FPA)
Text: The assay is run in 384-well format and is read on a BioTek Cytation. […] Replicate values are fit to a 4-parameter fit in XLFit to generate a single IC50 value for each compound that is then converted to a Ki value. Experiments are repeated to generate a 2nd, independent Ki value; values from the two experiments are averaged to produce the reported Ki value for the compound.

[3] = Inhibition of WDR5 by TR-FRET assay
[4] = cellular proliferation of MV4:11 human cancer cell lines, 7 day
[5] = Homo sapiens, MV4:11 leukemia cells after a 7 day incubation period

## Cc1cc(C(C)NC(=O)c2cc(CNC3=NCCC3)cc(-c3ccc(F)nc3C)c2)ncc1Cl (stereo not drawn) [Example 54, N-(1-(5-Chloro-4-methylpyridin-2-yl)ethyl)-3-(((3,4-dihydro-2H-pyrrol-5-yl)amino)methyl)-5-(6-fluoro-2-methylpyridin-3-yl)benzamide]
WDR5 [1]; [3]
  Ki: 0.31 nM
MV4:11 cells; [4]
  GI50: 180 nM

## COc1cc(OC)cc(C(C)NC(=O)c2cc(CNC3=NCCC3)cc(-c3ccc(F)nc3C)c2)c1 (stereo not drawn) [Example 55, 3-(((3,4-Dihydro-2H-pyrrol-5-yl)amino)methyl)-N-(1-(3,5-dimethoxyphenyl)ethyl)-5-(6-fluoro-2-methylpyridin-3-yl)benzamide]
WDR5 [1]; [3]
  Ki: 11 nM
MV4:11 cells; [4]
  GI50: 440 nM

## CNc1c(C(=O)N(C)Cc2cc(OC)cc(OC)c2)cc(CNC2=NCCN2)cc1-c1ccc(F)cc1C [Example 171, 5-(((4,5-Dihydro-1H-imidazol-2-yl)amino)methyl)-N-(3,5-dimethoxybenzyl)-4′-fluoro-N,2′-dimethyl-2-(methylamino)-[1,1′-biphenyl]-3-carboxamide]
WDR5 [1]; [3]
  Ki: 19 nM
MV4:11 cells; [4]
  GI50: 3800 nM

## Cc1cc(CNC(=O)c2cc(CNC3=NC(=O)CN3C)cc(-c3ccc(F)nc3C)c2)ccc1Cl [Example 71, N-(4-Chloro-3-methylbenzyl)-3-(6-fluoro-2-methylpyridin-3-yl)-5-(((1-methyl-4-oxo-4,5-dihydro-1H-imidazol-2-yl)amino)methyl)benzamide]
WDR5 [1]; [3]
  Ki: 6.6 nM
MV4:11 cells; [4]
  GI50: 5000 nM

## CNc1c(C(=O)N(C)Cc2cc(OC)cc(OC)c2)cc(CNC2=NCCC2)cc1-c1ccc(F)cc1C [Example 170, 5-(((3,4-dihydro-2H-pyrrol-5-yl)amino)methyl)-N-(3,5-dimethoxybenzyl)-4′-fluoro-N,2′-dimethyl-2-(methylamino)-[1,1′-biphenyl]-3-carboxamide]
WDR5 [1]; [3]
  Ki: 19 nM
MV4:11 cells; [4]
  GI50: 4700 nM

## O=C(NCc1ccc(Cl)c(Cl)c1)c1ccc(F)c(CNC2=NCCN2)c1 [Example B6]
WDR5 [2]
  Ki: 4.01 nM
MV4:11 cells; [5]
  GI50: 3280 nM

## CCn1cc(-c2cc(CNC(=N)C3CCC3)cc(C(=O)N[C@H](c3ccc(F)c(C)c3)C3CC3)c2)c(C(F)(F)F)n1 [Example 106, (S)-3-(Cyclobutanecarboximidamidomethyl)-N-(cyclopropyl(4-fluoro-3-methylphenyl)methyl)-5-(1-ethyl-3-(trifluoromethyl)-1H-pyrazol-4-yl)benzamide]
WDR5 [1]; [3]
  Ki: < 0.1 nM
MV4:11 cells; [4]
  GI50: 30 nM

## COc1cc(OC)cc(C(C)NC(=O)c2cc(CNC3=NCCN3)cc(-c3ccc(F)nc3C)c2)c1 (stereo not drawn) [Example 7, 3-(((4,5-Dihydro-1H-imidazol-2-yl)amino)methyl)-N-(1-(3,5-dimethoxyphenyl)ethyl)-5-(6-fluoro-2-methylpyridin-3-yl)benzamide]
WDR5 [1]; [3]
  Ki: 0.11 nM
MV4:11 cells; [4]
  GI50: 280 nM

## Cc1cc(CNC(=O)c2cc(CNC3=NCCN3)cc(-c3ccc(F)nc3C)n2)ccc1Cl [Example 74, N-(4-Chloro-3-methylbenzyl)-4-(((4,5-dihydro-1H-imidazol-2-yl)amino)methyl)-6′-fluoro-2′-methyl-[2,3′-bipyridine]-6-carboxamide]
WDR5 [1]; [3]
  Ki: 0.46 nM
MV4:11 cells; [4]
  GI50: 680 nM

## Cc1cc(-c2cc(CNC3=NCCN3)cc(C(=O)NCc3ccc(Cl)c(C)c3)c2)cc(C)n1 [Example 41, N-(4-chloro-3-methylbenzyl)-3-(((4,5-dihydro-1H-imidazol-2-yl)amino)methyl)-5-(2,6-dimethylpyridin-4-yl)benzamide]
WDR5 [1]; [3]
  Ki: < 0.1 nM
MV4:11 cells; [4]
  GI50: 170 nM

## Cc1cc(CNC(=O)c2cc(CNC3=NCCC3)cc(-c3ccc(F)nc3C)c2)ccc1Cl [Example B129]
WDR5 [1]
  Ki: 0.089 nM
MV4:11 cells; [5]
  GI50: 109 nM

## COc1cc(CNC(=O)c2cc(CNC3=NCCC3)cc(-c3ccc(F)cc3C)c2N)cc(OC)c1 [Example 168, 2-Amino-5-(((3,4-dihydro-2H-pyrrol-5-yl)amino)methyl)-N-(3,5-dimethoxybenzyl)-4′-fluoro-2′-methyl-[1,1′-biphenyl]-3-carboxamide]
WDR5 [1]; [3]
  Ki: 5.2 nM
MV4:11 cells; [4]
  GI50: 4800 nM

## Cc1cc(CNC(=O)c2cc(CNC3=NCCC3)cc(-c3ccc(F)cc3C(F)(F)F)c2)ccc1Cl [Example 68, N-(4-chloro-3-methylbenzyl)-5-(((3,4-dihydro-2H-pyrrol-5-yl)amino)methyl)-4′-fluoro-2′-(trifluoromethyl)-[1,1′-biphenyl]-3-carboxamide]
WDR5 [1]; [3]
  Ki: 0.3 nM
MV4:11 cells; [4]
  GI50: 160 nM

## COc1cc(CNC(=O)c2cccc(CNC3=NCCN3)c2F)cc(OC)c1 [Example B21]
WDR5 [2]
  Ki: 17.8 nM
MV4:11 cells; [5]
  GI50: > 30000 nM

## COc1cc(CNC(=O)c2cc(CNC3=NCCN3)cc(-c3ccc(F)cc3C)c2NC(C)=O)cc(OC)c1 [Example 173, 2-Acetamido-5-(((4,5-dihydro-1H-imidazol-2-yl)amino)methyl)-N-(3,5-dimethoxybenzyl)-4′-fluoro-2′-methyl-[1,1′-biphenyl]-3-carboxamide]
WDR5 [1]; [3]
  Ki: 7.2 nM
MV4:11 cells; [4]
  GI50: 530 nM
